Assay results: a melting point compilation (Tetko et al.; mined from patent text by program, amines drawn as free bases though some values may be those of a salt)

Row | Compound | melting point [°C]
1 | COC(=O)[C@@H]1Cc2ccccc2N1C(=O)[C@H](CC(=O)OCc1ccccc1)NC(=O)C(F)(F)F | 88 to 90
2 | CC(O)c1ccc(C2CCCCC2)cc1 (stereo not given) | 81.5 to 82.5
3 | O=C(Nc1c(C(O)(C(F)(F)F)C(F)(F)F)ccc2ccccc12)c1ccc(Br)cc1 | 155 to 156
4 | O=C1N(N2CCCCC2)c2ccccc2C1(Cc1ccncc1)Cc1ccncc1 | 140 to 143
5 | Cc1cc2c(cc1N)C(C)(C)CCC2(C)C | 94 to 95
6 | CCCn1nc(C(C)C)c(C(=O)OCOC(C)=O)c1Cc1ccc(-c2ccccc2-c2nnn(C(c3ccccc3)(c3ccccc3)c3ccccc3)n2)cc1 | 124 to 128
7 | O=C(O)c1cn(C2CC2)c2cc(N3CCNC(c4cc5ccccc5o4)C3)c(F)cc2c1=O (stereo not given) | 203 to 206
8 | Cc1nccn1-c1ccc(-c2cnc([C@H](Cc3ccccn3)N(C=O)c3cc4ccccc4[nH]3)n2C)cc1 | 207 to 211
9 | COc1cc(Nc2nc3cccc(-c4ccc(CNC(C)=O)cc4)c3o2)cc(OC)c1OC | 237 to 239
10 | Cn1nc2nnsc2c1Br | 99 to 101
11 | N#CN1c2ccccc2C=Cc2ccccc21 | 108 to 109
12 | O=C1COC(Nc2ccccc2)=C1C(=O)Nc1ccccc1 | 182 to 184
13 | COc1ccc(/C=C/c2nc3cc(C(=O)O)ccc3[nH]2)cc1OC | > 285
14 | O=C/C=C/c1ccc(C(F)(F)F)cc1 | 60 to 61
15 | C[Si](C)(C1C=Cc2c(-c3ccccc3)cccc21)C1C=Cc2c(-c3ccccc3)cccc21 (stereo not given) | 109 to 110
16 | c1ccc2oc(SSCCSSc3nc4ccccc4o3)nc2c1 | 124 to 125
17 | Cc1ccc(-c2ccc(C(=O)Nc3ccc4nc(CN5C(C)(C)CCCC5(C)C)ccc4c3)cc2)cc1 | 242 to 243
18 | c1ccc(Cc2ccc(-c3ccccc3)[nH]2)cc1 | 82 to 84
19 | Cn1nc(-c2ccccc2F)nc1-c1ccccc1C(F)(F)F | 104 to 107
20 | O=[N+]([O-])c1cc(Cl)c(OCC(F)(F)C(F)(F)F)c(Cl)c1F | 62 to 63
21 | CCCCCCC1C(=O)NC(C(=O)SC2CCCCC2)(C(O)C2C=CCCC2)C1(C)O (stereo not given) | 85
22 | CNC(=O)c1c(I)c(NC(C)=O)c(I)c(C(=O)NCCC(=O)O)c1I | 190
23 | CC(C)COC(=O)N1CCN(c2c(C(=O)N3CCN(C)CC3)c3ccccc3n2-c2ccccc2)CC1 | 132 to 133

Row | Compound | melting point [°C]
24 | Cn1cc(C(=O)O)c(=O)c2cc3cc(F)c(N4CCNC(c5ccccc5)C4)cc3nc21 (racemic) | 265
25 | CC(C)C[C@H](NC(=O)OCC1c2ccccc2-c2ccccc21)C(=O)OC(C)(C)C | 183 to 184
26 | CC(=NOc1ccc(C=O)cc1)c1ccc(C)cc1 | 96 to 98
27 | CCCCCCCCNc1nc(Cl)nc(NCCCCCCCC)n1 | 171 to 172
28 | CCCCCCCCCCCCCCCNC(=O)OCCOCCOC(=O)N(Cc1ccccn1)C(C)=O | 53 to 55
29 | Cc1c(O)ccc2c(=O)cc(N3CCOCC3)oc12 | > 250
30 | COCCNC(=O)c1cccc(-c2cccc3cc(Cc4cc(Cl)cc(Cl)c4)sc23)c1 | 109 to 110
31 | C=C(C)C1CCC(C)(C(=O)O)C1=C (stereo not given) | 66.5 to 68
32 | Nc1nc2cccnc2c2c1ncn2CC1(O)CCOCC1 | 225 to 226
33 | COc1cc2c(cc1OC)CC(C#N)=C2 | 140 to 141
34 | COc1ccc(C(=O)Nc2cc(NC(=O)c3ccc(N(C)CCCN(C)C)cc3)ccc2C)cc1OC | 164 to 165
35 | C=CCOc1ccc(-c2c(OC(C)C)cccc2C(=O)O)c(OC)c1 | 101 to 103
36 | Cc1cc(-c2cc(C(F)(F)F)n3ncc(-c4nc(-c5ccc(S(N)(=O)=O)s5)no4)c3n2)ccc1C(F)(F)F | 324
37 | Cc1nnc(-c2ccccc2F)n2nc(OCc3ncnn3C)c(-c3ccccc3)c12 | 159 to 162
38 | CN1CCN(c2ccc(C3CCC4(CCC4c4ccccc4)C(=O)N3c3ccccc3)cc2)CC1 (stereo not given) | 166 to 168
39 | FC(F)(c1ccccc1)C(F)(F)c1cccc(Br)c1 | 72 to 75
40 | O=C(O)C=Cc1ccc(C=CC(=O)O)c2ccccc12 | 350 to 355
41 | CCOC(=O)c1c(C(F)(F)F)nc(-c2cccs2)c(-c2ccccc2)c1O | 136
42 | C=CC[C@@H]1C[C@@H](COc2ccc(-c3ccc(C#N)cc3)cc2)NC1=O | 99 to 101
43 | Cc1cc(C2=C(C=CC3CC(O)CC(=O)O3)C(C)(C)CC(N3CCCC3)C2)ccc1F (stereo not given) | 120 to 123
44 | Oc1ccc(-c2c3ccccc3cc3sc4ccccc4c23)cc1I | 125 to 128
45 | OCCNc1c(Br)cnc2cc(C(F)(F)F)ccc12 | 140 to 141
46 | CCCCCCCCNCC(O)C(O)C(O)C(O)CO (stereo not given) | 114 to 116

More lines, now with the values ahead:

Row | melting point [°C] | Compound
47 | 110 | CC#CCOc1ccc(S(=O)(=O)C2(C(=O)O)CCN(Cc3ccc(C#N)cc3)CC2)cc1
48 | 63 to 65 | CCN(CC)S(=O)(=O)c1cc(C(=O)CCl)ccc1Cl
49 | 126 to 128 | COc1ccn2nc(SCc3ccccc3)nc2n1
50 | 71 to 74 | CS(=O)(=O)On1nnc2c(Cl)cccc21
51 | 89 to 90 | Nc1cc(Cl)ccc1-n1cccc1
52 | 95 to 96 | Brc1cnc(Br)c2ccccc12
53 | 211 to 213 | COC(=O)c1cn(Cc2ccccc2)c2ccc(C3CCCCC3)cc2c1=O
54 | 129 to 132 | CCOC(=O)C1CCc2c(n(C(=O)c3ccc(Cl)cc3)c3ccc(Cl)cc23)C1 (stereo not given)
55 | 176 to 178 | Cc1ccc2c(c1)C(=O)C(C#N)C2=O (stereo not given)
56 | 85 to 87 | CCOC(=O)c1c(C)nc(N2CCN(c3ccccc3)CC2)c2nccnc12
57 | 92 to 95 | COc1cnc(CCCOc2cccc(CN3CCCC3)c2)[nH]c1=O
58 | 127 to 130 | CCc1nc2cc(C(F)(F)F)c(Cl)cc2n1-c1ccc(CCOC(=O)NS(=O)(=O)c2ccccn2)cc1
59 | 78 | Fc1ccc(-c2c3cccc(C(F)(F)F)c3nn2Cc2ccc(F)cc2Cl)cc1
60 | 190 | COc1ccc(-c2nc3cc(F)ccc3s2)cc1OC(C)=O
61 | 160 | CC(C)(C)NS(=O)(=O)c1ccc(C(=O)c2ccc(F)cc2)cc1
62 | 152 | O=C(OCc1c(Cl)ccc2cc(Cl)cnc12)c1ccccc1[N+](=O)[O-]
63 | 230 to 232 | O=C(Nc1cnc2c(c1)CCN2)c1cc2cc(F)ccc2n1Cc1cccc(F)c1
64 | 232 to 233 | CCN1C(=O)CCCc2cc(Nc3ncc(Cl)c(Nc4ccccc4C(=O)NC)n3)c(OC)cc21
65 | 129 to 131 | CCOc1c(OC)cc(N)c2ncccc12
66 | 161 to 162 | COc1cc(N)c(Cl)cc1C(=O)NCC1CCN(CCS(=O)(=O)CCc2ccccc2)CC1
67 | 188 | COc1ccccc1Oc1c(OC)nn(C)c1NS(=O)(=O)c1ccc(C(C)(C)C)cc1
68 | 153 to 157 | CS(=O)(=O)c1ccc(-n2ncc(C#N)c2-c2ccc(-c3ccco3)cc2)cc1F
69 | 181 to 183 | CC(C)NS(=O)(=O)c1cc(Br)c(N)c(Br)c1
70 | 99 to 102 | Nc1ccc(S(=O)(=O)CCCO)cc1
